In PMC10979160 (Heliyon, 2024):
Values after ≈ are worked out from the molar mass of the structure shown. Where a name gives a salt, the structure may show the parent alone. Read-outs that look alike come from different tables or passages of the source. Where a SMILES comes first, the peptide text is derived from it. [ ]: non-standard residue; d: D form.

Tests used:
E. coli ATCC 25922 [1] = experiment: Checkerboard dilution assay for synergy between CAMPs and antibiotics; format: cell-based
E. coli ATCC 25922 [2] = experiment: MIC test for dividing and non-dividing bacterial cultures; format: cell-based; settings: Escherichia coli, ATCC25922, 1 h
[3] = peptide + ampicillin, 5 × 10^3 CFU/mL
[4] = peptide + ampicillin, 5 × 10^5 CFU/mL
[5] = peptide + gentamicin, 5 × 10^3 CFU/mL
[6] = peptide + gentamicin, 5 × 10^5 CFU/mL
[7] = peptide + levofloxacin, 5 × 10^3 CFU/mL
[8] = peptide + levofloxacin, 5 × 10^5 CFU/mL
[9] = read-out: MIC, dividing cells (LB)
[10] = read-out: MIC, non-dividing cells (PBS)

MIC (E. coli ATCC 25922 [2]; [9]) | MIC (E. coli ATCC 25922 [2]; [10]) | Structure (SMILES) | FICI (E. coli ATCC 25922 [1]; [3]) | FICI (E. coli ATCC 25922 [1]; [4]) | FICI (E. coli ATCC 25922 [1]; [5]) | FICI (E. coli ATCC 25922 [1]; [6]) | FICI (E. coli ATCC 25922 [1]; [7]) | FICI (E. coli ATCC 25922 [1]; [8])
– | – | CC[C@H](C)[C@H](NC(=O)CN)C(=O)N[C@@H](CCCCN)C(=O)N[C@H](C(=O)N[C@@H](CCCNC(=N)N)C(=O)N[C@@H](CCCCN)C(=O)N[C@@H](CC(C)C)C(=O)N[C@@H](Cc1ccccc1)C(=O)N[C@@H](CCCCN)C(=O)N[C@@H](CCCCN)C(=O)N[C@@H](CC(C)C)C(=O)N[C@@H](CC(C)C)C(=O)N[C@@H](CCCNC(=N)N)C(N)=O)[C@@H](C)CC [LCAPL2] (H-GIKIRKLFKKLLR-NH2) | 0.5 | 0.75 | 0.625 | 0.375 | 0.531 | 0.625
– | – | CC[C@H](C)[C@H](NC(=O)[C@H](CCCNC(=N)N)NC(=O)[C@H](CCCCN)NC(=O)[C@H](CC(C)C)NC(=O)[C@H](Cc1ccccc1)NC(=O)[C@H](CCCNC(=N)N)NC(=O)[C@H](C)NC(=O)[C@@H](N)C(C)C)C(=O)N[C@H](C(=O)N[C@@H](CCCCN)C(=O)N[C@@H](C)C(=O)N[C@@H](CC(C)C)C(=O)N[C@@H](Cc1ccccc1)C(N)=O)[C@@H](C)CC [LCAPL8] (H-VARFLKRIIKALF-NH2) | 1.016 | 1.031 | 1.031 | 0.531 | 1.25 | 0.625
– | – | CC[C@H](C)[C@H](N)C(=O)N[C@H](C(=O)N[C@@H](CCCCN)C(=O)N[C@@H](CCCNC(=N)N)C(=O)N[C@H](C(=O)N[C@@H](CC(C)C)C(=O)N[C@H](C(=O)N[C@@H](CCC(N)=O)C(=O)N[C@@H](CC(C)C)C(=O)N[C@@H](CCCCN)C(=O)N[C@@H](CCCCN)C(=O)N[C@@H](CC(C)C)C(=O)N[C@@H](CC(C)C)C(N)=O)[C@@H](C)CC)[C@@H](C)CC)[C@@H](C)CC [LCAPL10] (H-IIKRILIQLKKLL-NH2) | 1.016 | 0.75 | 1.125 | 0.5 | 1.031 | 0.531
> 100 µg/mL | > 100 µg/mL | CC1(C)S[C@@H]2[C@H](NC(=O)[C@H](N)c3ccccc3)C(=O)N2[C@H]1C(=O)O [Ampicillin, ampicillin sodium salt] | – | – | – | – | – | –
– | – | CC(C)C[C@H](NC(=O)[C@H](Cc1c[nH]c2ccccc12)NC(=O)[C@H](CCCNC(=N)N)NC(=O)[C@H](CC(C)C)NC(=O)[C@H](CCCNC(=N)N)NC(=O)[C@H](Cc1c[nH]c2ccccc12)NC(=O)[C@H](Cc1c[nH]c2ccccc12)NC(=O)[C@H](CC(C)C)NC(=O)[C@H](CCCCN)NC(=O)[C@H](Cc1c[nH]c2ccccc12)NC(=O)[C@@H](NC(=O)[C@@H](N)CC(C)C)C(C)C)C(=O)N[C@@H](CCCCN)C(N)=O [ST1L] (H-LVWKLWWRLRWLK-NH2) | 0.375 | 0.625 | 1 | 0.516 | 0.625 | 0.75
– | – | CC(C)C[C@@H](N)C(=O)N[C@@H](C(=O)N[C@H](Cc1c[nH]c2ccccc12)C(=O)N[C@H](CCCCN)C(=O)N[C@H](CC(C)C)C(=O)N[C@H](Cc1c[nH]c2ccccc12)C(=O)N[C@H](Cc1c[nH]c2ccccc12)C(=O)N[C@H](CCCNC(=N)N)C(=O)N[C@H](CC(C)C)C(=O)N[C@H](CCCNC(=N)N)C(=O)N[C@H](Cc1c[nH]c2ccccc12)C(=O)N[C@H](CC(C)C)C(=O)N[C@H](CCCCN)C(N)=O)C(C)C [ST1D] (H-[dL][dV][dW][dK][dL][dW][dW][dR][dL][dR][dW][dL][dK]-NH2) | 0.625 | 0.625 | 0.516 | 0.625 | 1 | 1.031
– | – | CC[C@H](C)[C@H](NC(=O)[C@H](C)N)C(=O)N[C@@H](CCCCN)C(=O)N[C@H](C(=O)N[C@@H](CCCNC(=N)N)C(=O)N[C@@H](CCCCN)C(=O)N[C@@H](CC(C)C)C(=O)N[C@@H](Cc1ccccc1)C(=O)N[C@@H](CCCCN)C(=O)N[C@@H](CCCCN)C(=O)N[C@@H](CC(C)C)C(=O)N[C@@H](CC(C)C)C(=O)N[C@@H](CCCNC(=N)N)C(N)=O)[C@@H](C)CC [L1L] (H-AIKIRKLFKKLLR-NH2) | 0.563 | 0.5 | 0.75 | 0.5 | 0.625 | 0.5
– | – | CC(C)C[C@H](NC(=O)[C@H](Cc1ccccc1)NC(=O)[C@H](CCCCN)NC(=O)[C@@H](N)CCCCN)C(=O)NCC(=O)N[C@@H](CCCCN)C(=O)N[C@@H](Cc1c[nH]c2ccccc12)C(=O)N[C@@H](CCCCN)C(=O)N[C@@H](CC(C)C)C(=O)N[C@@H](CCCNC(=N)N)C(=O)N[C@@H](Cc1ccccc1)C(=O)NCC(=O)N[C@@H](Cc1c[nH]c2ccccc12)C(N)=O [LCAPL15] (H-KKFLGKWKLRFGW-NH2) | 0.75 | 0.563 | 1.031 | 0.75 | 0.75 | 0.563
– | – | CC[C@@H](C)[C@@H](NC(=O)[C@@H](Cc1c[nH]c2ccccc12)NC(=O)[C@H](N)CCCNC(=N)N)C(=O)N[C@H](CCCNC(=N)N)C(=O)N[C@H](Cc1c[nH]c2ccccc12)C(=O)N[C@@H](C(=O)N[C@H](Cc1c[nH]c2ccccc12)C(=O)N[C@H](CCCNC(=N)N)C(=O)N[C@H](CCCCN)C(=O)N[C@H](CCCCN)C(=O)N[C@H](CC(C)C)C(=O)N[C@H](CCCNC(=N)N)C(N)=O)C(C)C [24D] (H-[dR][dW][dI][dR][dW][dV][dW][dR][dK][dK][dL][dR]-NH2) | 1.016 | 0.625 | 1.015 | 1 | 1 | 1.031
50 µg/mL (≈ 105 µM) | 25 µg/mL (≈ 52.3 µM) | CNC(C)C1CCC(N)C(OC2C(N)CC(N)C(OC3OCC(C)(O)C(NC)C3O)C2O)O1 (stereo not shown) [Gentamicin, gentamicin] | – | – | – | – | – | –
– | – | CC[C@H](C)[C@H](NC(=O)[C@H](Cc1c[nH]c2ccccc12)NC(=O)[C@@H](N)CCCNC(=N)N)C(=O)N[C@@H](CCCNC(=N)N)C(=O)N[C@@H](Cc1c[nH]c2ccccc12)C(=O)N[C@H](C(=O)N[C@@H](Cc1c[nH]c2ccccc12)C(=O)N[C@@H](CCCNC(=N)N)C(=O)N[C@@H](CCCCN)C(=O)N[C@@H](CCCCN)C(=O)N[C@@H](CC(C)C)C(=O)N[C@@H](CCCNC(=N)N)C(N)=O)C(C)C [24L] (H-RWIRWVWRKKLR-NH2) | 0.625 | 0.5 | 1 | 0.5 | 0.75 | 0.5
– | – | CC[C@H](C)[C@H](NC(=O)[C@H](Cc1ccccc1)NC(=O)CN)C(=O)N[C@@H](CCCCN)C(=O)N[C@H](C(=O)N[C@H](C(=O)N[C@@H](CCCNC(=N)N)C(=O)N[C@@H](CCCCN)C(=O)N[C@@H](CC(C)C)C(=O)N[C@@H](CC(C)C)C(=O)N[C@@H](CCCNC(=N)N)C(=O)N[C@@H](CC(C)C)C(=O)N[C@@H](Cc1ccccc1)C(N)=O)C(C)C)[C@@H](C)CC [LCAPL9] (H-GFIKIVRKLLRLF-NH2) | 1.016 | 0.625 | 1 | 1.031 | 2 | 1.25
